According to patent publication US8513381B2, “Melanocortin analogs with antimicrobial activity” (Fondazione IRCCS Ca' Granda-Ospedale Maggiore Policlinico, priority 2009, dated 2013):
In brackets after ≈: the same amount, converted by molar mass. Where two headings read alike, the source gives them in different places. Non-standard residues stand in square brackets, D forms with d. Residues, ends and D or L forms follow the SMILES beside them. d2Nal = N[C@H](Cc1ccc2ccccc2c1)C(=O)O; Ac6c = NC1(C(=O)O)CCCCC1

Tests used:
[1] = tested on: C. albicans; assay type: cell-based, Candida albicans
Method: (§1) Two Candida albicans isolates were purchased from the ATCC (No. 24433 and 76615). The other yeast isolates were obtained from the collection of Fondazione Ospedale Maggiore Policlinico, Mangiagalli e Regina Elena, Milano. The collection included C. albicans (7 isolates), C. glabrata (3 isolates), and C. krusei (3 isolates). Antifungal susceptibility testing was performed using the broth microdilution method according to the NCCLS M27-A guidelines (National Committee for Clinical Laboratory Standards. 1997, Reference method for broth dilution antifungal susceptibility testing of yeasts and approved standard NCCLS document M27-A. National Committee for Clinical Laboratory Standards, Wayne, Pa.). The organisms were removed from frozen glycerol stock (10% sterile glycerol suspensions stored at −70° C.), subcultured onto Sabouraud's dextrose plates, and incubated at 35° C. After 48 h of incubation, the plates were inspected for purity. To prepare stationary growth phase yeast, a colony was taken from the agar plate and transferred into 5 mL Sabouraud-dextrose broth and incubated for 48 h at 35° C. Cells were centrifuged at 1,000×g for 10 min and the pellet was washed twice with distilled water. Cells were counted and suspended in RPMI 1640 medium buffered to pH 7.0 with 0.165 mol l^−1 morpholinepropanesulphonic acid (MOPS) buffer (Sigma) to obtain the two times test inoculum (1×10^3 to 5×10^3 CFU/mL). Each well of 96 U-shaped well-plates received 100 μl of each antifungal peptides in concentrations from 10^−4 to 7.8×10^−7 M and 100 μl of the two-times inoculum to a final yeast concentration of 0.5×10−[…] cells ml^−1
(§2) The MIC90, i.e. the minimum inhibitory concentrations endpoint determined as 90% reduction in turbidity measured using a spectrophotometer (Titertek multiscan at 690 nm wave length).

[2] = tested on: C. glabrata; assay type: cell-based, Candida glabrata
Method: as §1, §2

[3] = tested on: C. krusei; assay type: cell-based, Candida krusei
Method: as §1, §2

Row | Molecule | MIC 90 at 48 hours [1] | MIC 90 at 48 hours ([2]; C. glabrata 18012, 35° C.) | MIC 90 at 48 hours ([2]; C. glabrata 995651, 35° C.) | MIC 90 at 48 hours ([2]; C. glabrata 995667, 35° C.) | MIC 90 at 48 hours [3] | MIC 90 at 48 hours ([3]; C. krusei 995668, 35° C.) | MIC 90 at 48 hours ([1]; C. albicans 000954, 35° C.) | MIC 90 at 48 hours ([1]; C. albicans 011587, 35° C.) | MIC 90 at 48 hours ([1]; C. albicans 983201-R1, 35° C.) | MIC 90 at 48 hours ([1]; C. albicans 991185, 35° C.) | MIC 90 at 48 hours ([1]; C. albicans 994199, 35° C.) | MIC 90 at 48 hours ([1]; C. albicans 995147, 35° C.) | MIC 90 at 48 hours ([1]; C. albicans 995439, 35° C.) | MIC 90 at 48 hours ([1]; C. albicans ATCC 24433, 35° C.) | MIC 90 at 48 hours ([1]; C. albicans ATCC 76615, 35° C.) | MIC 90 at 48 hours ([3]; C. krusei 004490, 35° C.) | MIC 90 at 48 hours ([3]; C. krusei 991388, 35° C.)
1 | CC(C)[C@H](NC(=O)[C@H](Cc1ccccc1)NC(=O)[C@H](CCCCN)NC(=O)C1(NC(=O)[C@H](Cc2c[nH]c3ccccc23)NC(=O)[C@H](CCCNC(=N)N)NC(=O)[C@@H](Cc2ccc3ccccc3c2)NC(=O)[C@@H](N)Cc2c[nH]cn2)CCCCC1)C(N)=O [MSH0712, H-His-D(2)-Nal-Arg-Trp-Aoca-Lys-Phe-Val-NH2] (H-H[d2Nal]RW[Ac6c]KFV-NH2) | 60 µg/mL (≈ 50.3 µM) | no | no | no |  |  |  |  |  |  |  |  |  |  |  |  | 
2 | CC(C)[C@H](NC(=O)[C@H](Cc1ccccc1)NC(=O)[C@H](CCCCN)NC(=O)[C@H](Cc1ccccc1)NC(=O)[C@H](Cc1c[nH]c2ccccc12)NC(=O)[C@H](CCCNC(=N)N)NC(=O)[C@@H](Cc1ccc2ccccc2c1)NC(=O)[C@@H](N)Cc1c[nH]cn1)C(N)=O [MSH0713, H-His-D(2)-Nal-Arg-Trp-Phe-Lys-Phe-Val-NH2] (H-H[d2Nal]RWFKFV-NH2) |  | no | no | no | 122 µg/mL (≈ 100 µM) | no |  |  |  |  |  |  |  |  |  |  | 
3 | H-His-D(2)-Nal-Arg-Trp-Acpc-Lys-Phe-Val-NH2 [MSH0706] |  | no | no |  |  | no | no | no | no | no | no | no | no | no | no | no | no
4 | H-His-D(2)-Nal-Arg-Trp-Ala-Lys-Phe-Val-NH2 [MSH0703] |  | no | no | no |  | no | no | no | no | no | no | no | no | no | no | no | no
5 | H-His-D(2)-Nal-Arg-Trp-Gly-Gly-Lys-Phe-Val-NH2 [MSH0701] |  | no | no | no |  | no | no | no | no | no | no | no | no | no | no | no | no
6 | H-His-D(2)-Nal-Arg-Trp-β-AA-Lys-Phe-Val-NH2 [MSH0710] |  | no | no | no |  | no | no | no | no | no | no | no | no | no | no | no | no
